# Laboratory results as given in paper PMC7096398, “Oxytocin Receptors Regulate Social Preference in Zebrafish” (Scientific Reports, 2020).
# Entries after “also recorded” stand apart in the source; their conditions may differ.
# Target: T1, Avpr1aa (Danio rerio, UniProt A0A8M1P1H3)
# T1 sequence (A0A8M1P1H3 1-379): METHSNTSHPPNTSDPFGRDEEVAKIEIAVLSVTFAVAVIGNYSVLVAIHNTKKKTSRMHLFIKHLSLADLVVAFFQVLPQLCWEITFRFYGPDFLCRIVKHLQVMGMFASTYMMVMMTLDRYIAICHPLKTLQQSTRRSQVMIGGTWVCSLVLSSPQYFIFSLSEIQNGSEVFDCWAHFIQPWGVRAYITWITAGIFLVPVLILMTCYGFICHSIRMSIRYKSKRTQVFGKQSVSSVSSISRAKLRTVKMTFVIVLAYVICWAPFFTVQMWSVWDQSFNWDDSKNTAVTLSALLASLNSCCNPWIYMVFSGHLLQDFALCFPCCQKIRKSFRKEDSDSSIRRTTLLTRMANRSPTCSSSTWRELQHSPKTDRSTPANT
# Experiment: Inositol phosphate accumulation assay, antagonism of 1 μM zVP at Avpr1aa
# Format: cell-based, zebrafish
# Conditions: stimulated with agonist; antagonist up to 1 μM
# Procedure: The receptor constructs were ordered from GeneScript and subcloned into a pcDNA3.1/CT-GFP-TOPO vector. The coding sequences of the GenBank entries NM_001199370.1 (oxtr), NM_001199369.1 (oxtrl), NM_001301114.1 (avpr1aa), and NM_001297676.1 (avpr1ab) were used for synthesis. The stop codons were removed, and an additional […] was added to facilitate hybrid protein expression with GFP in frame from the vector. The GCCACC Kozak sequence was inserted before the start codons. After transformation of the plasmid constructs into TOP10 competent cells (Thermo Fisher Scientific), the Maxiprep (Thermo Fisher Scientific) method was used to amplify the plasmids for transfection.
# The Inositol phosphate accumulation assay was performed according to previous descriptions to measure the potency of different ligands for zebrafish different oxytocin related receptors. Each receptor construct was transfected into HEK293 cells using Lipofectamine 2000 (Thermo Fisher Scientific). Myo2-^3H-inositol (PerkinElmer) at 3 μCi/mL was added the day after transfection. […] Samples were mixed with OptiPhase HiSafe (PerkinElmer Waltham, MA, USA) and ^3H radioactivity was measured with a Tri-Carb 2910TR liquid scintillation counter (PerkinElmer Waltham, MA, USA). […]
smiles,measurement,value
"Cc1ccccc1N1CCN(S(=O)(=O)C[C@]23CC[C@H](C[C@@H]2NC(=O)[C@@H](N)CCS(C)(=O)=O)C3(C)C)CC1 [L-368,899]","Antagonism at Avpr1aa, in words",did not block the response; also recorded: without reducing the effect of the peptide agonist
